Drawing on patent publication US4876245A, “Fluorine-containing macrolide compounds and their use” (Daikin Industries Ltd., priority 1986, dated 1989), this text covers MIC for three compounds.

Type in all cases: cell-based
Experiment [1] relates to Streptococcus pneumoniae. As to the kind of experiment: antimicrobial activity, agar streak method (MIC), aerobic gram-positive.
Experiment [2] concerns Pseudomonas aeruginosa. As to the kind of experiment: antimicrobial activity, agar streak method (MIC), aerobic gram-negative.
The subject of experiment [3] is Salmonella typhi. The experiment is described as above. The settings on record: Salmonella enterica.
The test system of experiment [4] is Escherichia coli. The description is as above.
The test system of experiment [5] is Clostridium perfringens. As to the kind of experiment: microbe, parasite or virus in culture.
The subject of experiment [6] is Staphylococcus aureus. As to the kind of experiment: antimicrobial activity, agar streak method (MIC), aerobic gram-positive.
For experiment [7], the system named is Streptococcus pyogenes. The experiment is described as above.
Experiment [8] deals with Shigella sonnei. As to the kind of experiment: antimicrobial activity, agar streak method (MIC), aerobic gram-negative. An excerpt:
The antimicrobial activities of 8,9-difluoroerythromycin 6,9-epoxide (Example 1), 8,9-difluoroerythromycin 6,9-epoxide 11,12-carbonate (Example 2) and 8,9-difluoroerythromycin 6,9-epoxide 11,12-sulfite (Example 4) are examined by an agar streak method and expressed in terms of minimal inhibitory concentrations (MIC, μg/ml) against the following bacteria.

Experiment [9] deals with Fusobacterium necrophorum. As to the kind of experiment: antimicrobial activity, agar streak method (MIC), anaerobic.
Experiment [10] deals with Bacterioides fragilis. The description is as above.
Experiment [11] relates to Acholeplasma laidlawii. As to the kind of experiment: antimicrobial activity, agar streak method (MIC), aerobic gram-negative.
Experiment [12] deals with Bacillus subtilis. As to the kind of experiment: antimicrobial activity, agar streak method (MIC), aerobic gram-positive.
Experiment [13] relates to Proteus vulgaris. As to the kind of experiment: antimicrobial activity, agar streak method (MIC), aerobic gram-negative.
The subject of experiment [14] is Streptococcus faecalis. As to the kind of experiment: antimicrobial activity, agar streak method (MIC), aerobic gram-positive. The settings on record: Enterococcus faecalis.
The subject of experiment [15] is Corynebacterium diphtheriae. The description is as above.
Experiment [16] relates to Hemophilus influenzae. As to the kind of experiment: antimicrobial activity, agar streak method (MIC), aerobic gram-negative. The settings on record: Haemophilus influenzae.
In experiment [17] the test system is Bacillus natto. As to the kind of experiment: antimicrobial activity, agar streak method (MIC), aerobic gram-positive. The settings on record: Bacillus subtilis.
Experiment [18] deals with Micrococcus luteus. Described as above.
Experiment [19] deals with Neisseria gonorrhoeae. As to the kind of experiment: antimicrobial activity, agar streak method (MIC), aerobic gram-negative.
In experiment [20] the test system is Mycoplasma homilis. As to the kind of experiment: antimicrobial activity, agar streak method (MIC).

≈ marks a conversion by molar mass, not a printed value.

Turning to `CC[C@H]1OC(=O)[C@H](C)[C@@H](O[C@H]2C[C@@](C)(OC)[C@@H](O)[C@H](C)O2)[C@H](C)[C@@H](O[C@@H]2O[C@H](C)C[C@H](N(C)C)[C@H]2O)[C@@]2(C)CC(C)(F)C(F)(O2)[C@H](C)[C@@H](O)[C@]1(C)O` (stereo partly drawn) [Example 1, 8,9-difluoroerythromycin A 6,9-epoxide], the MIC in [1] came to 0.025 µg/mL (≈ 0.0332 µM); in [2], 26 µg/mL (≈ 34.5 µM); in experiment [3] it was 13.2 µg/mL (≈ 17.5 µM); in experiment [4] it was 31.2 µg/mL (≈ 41.5 µM); in experiment [5] it was 0.83 µg/mL (≈ 1.1 µM); in [6], 0.156 µg/mL (≈ 0.207 µM). Besides, the MIC in experiment [7] came out at 0.011 µg/mL (≈ 0.0146 µM); in [8], 25 µg/mL (≈ 33.2 µM); in experiment [9], 2 µg/mL (≈ 2.65 µM); in experiment [10], 0.21 µg/mL (≈ 0.279 µM); in [11] it was 0.1 µg/mL (≈ 0.133 µM); in experiment [12] it was 0.049 µg/mL (≈ 0.065 µM). In addition, the MIC amounted to 26 µg/mL (≈ 34.5 µM) in experiment [13]; 1.25 µg/mL (≈ 1.66 µM) in experiment [14]; 0.011 µg/mL (≈ 0.0146 µM) in experiment [15]; 3.5 µg/mL (≈ 4.64 µM) in [16]; 0.078 µg/mL (≈ 0.103 µM) in [17]; 0.006 µg/mL (≈ 0.00796 µM) in [18]. The values for the MIC in experiment [19] and in experiment [20] were 0.052 µg/mL (≈ 0.069 µM) and 25 µg/mL (≈ 33.2 µM), respectively.

As for `CC[C@H]1OC(=O)[C@H](C)[C@@H](O[C@H]2C[C@@](C)(OC)[C@@H](O)[C@H](C)O2)[C@H](C)[C@@H](O[C@@H]2O[C@H](C)C[C@H](N(C)C)[C@H]2O)[C@@]2(C)CC(C)(F)C(F)(O2)[C@H](C)[C@H]2OS(=O)O[C@@]21C` (stereo partly drawn) [Example 4, 8,9-difluoroerythromycin A 6,9-epoxide 11,12-sulfite], the MIC was 0.013 µg/mL (≈ 0.0163 µM) in experiment [1]; 26 µg/mL (≈ 32.5 µM) in experiment [2]; 13.2 µg/mL (≈ 16.5 µM) in experiment [3]; 7.8 µg/mL (≈ 9.75 µM) in experiment [4]; 0.3 µg/mL (≈ 0.375 µM) in experiment [5]; 0.156 µg/mL (≈ 0.195 µM) in experiment [6]. The MIC in experiment [7] was 0.011 µg/mL (≈ 0.0138 µM); in experiment [8], 12.5 µg/mL (≈ 15.6 µM); in experiment [9] it was 8 µg/mL (≈ 10 µM); in [10], 0.84 µg/mL (≈ 1.05 µM); in [11] it was 0.2 µg/mL (≈ 0.25 µM); in [12], 0.049 µg/mL (≈ 0.0613 µM). Further, the MIC in experiment [13] worked out at 26 µg/mL (≈ 32.5 µM); in experiment [14], 0.625 µg/mL (≈ 0.781 µM); in experiment [15], 0.022 µg/mL (≈ 0.0275 µM); in experiment [16], 7 µg/mL (≈ 8.75 µM); in experiment [17] it was 0.078 µg/mL (≈ 0.0975 µM); in experiment [18], 0.02 µg/mL (≈ 0.025 µM). In addition, the MIC in experiment [19] turned out to be 0.052 µg/mL (≈ 0.065 µM); in [20] it was 25 µg/mL (≈ 31.3 µM).

With `CC[C@H]1OC(=O)[C@H](C)[C@@H](O[C@H]2C[C@@](C)(OC)[C@@H](O)[C@H](C)O2)[C@H](C)[C@@H](O[C@@H]2O[C@H](C)C[C@H](N(C)C)[C@H]2O)[C@@]2(C)CC(C)(F)C(F)(O2)[C@H](C)[C@H]2OC(=O)O[C@@]21C` (stereo partly drawn) [Example 2, 8,9-difluoroerythromycin A 6,9-epoxide 11,12-carbonate], the MIC in experiment [1] was 0.013 µg/mL (≈ 0.0167 µM); in [2] it was 26 µg/mL (≈ 33.3 µM); in [3] it was 13.2 µg/mL (≈ 16.9 µM); in [4], 7.8 µg/mL (≈ 10 µM); in [5] it was 3.3 µg/mL (≈ 4.23 µM); in experiment [6], 0.156 µg/mL (≈ 0.2 µM). Besides, the MIC in [7] worked out at 0.011 µg/mL (≈ 0.0141 µM); in [8] it was 12.5 µg/mL (≈ 16 µM); in experiment [9] it was 8 µg/mL (≈ 10.3 µM); in experiment [10] it was 0.84 µg/mL (≈ 1.08 µM); in experiment [11], 0.2 µg/mL (≈ 0.256 µM); in experiment [12] it was 0.049 µg/mL (≈ 0.0628 µM). The MIC was found to be 26 µg/mL (≈ 33.3 µM) in [13]; 0.625 µg/mL (≈ 0.801 µM) in experiment [14]; 0.022 µg/mL (≈ 0.0282 µM) in experiment [15]; 7 µg/mL (≈ 8.98 µM) in experiment [16]; 0.078 µg/mL (≈ 0.1 µM) in experiment [17]; 0.02 µg/mL (≈ 0.0256 µM) in experiment [18]. Also, the MIC was 0.052 µg/mL (≈ 0.0667 µM) in [19] and 25 µg/mL (≈ 32.1 µM) in experiment [20].
